In PubChem BioAssay AID2060883 (Molecular Pharmacology Branch, DTP, NCI, 2025):
pIC50: −log10 of the molar value.

System: 843782-103-R-J1-PDC complex spheroid viability
Experiment: Anticancer human tumor 843782-103-R-J1-PDC patient-derived lung adenocarcinoma cell line growth inhibition [RAS]
Settings: for pIC50: curve of first compound; for viability, T/C: stronger effect = lower value
Method in brief: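 Tumour cells grown as complex spheroids with HUVEC endothelial cells and mesenchymal stem cells, treated with RAS pathway inhibitor combinations. Each agent spans half-log steps from near clinical Cmax, or 10 microM where Cmax is unknown.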

[1] = second compound 0.00316 µM, first compound 0.00316 µM
[2] = second compound 0.00316 µM, first compound 0.01 µM
[3] = second compound 0.00316 µM, first compound 0.0316 µM
[4] = second compound 0.00316 µM, first compound 0.1 µM
[5] = second compound 0.00316 µM, first compound 0.316 µM
[6] = second compound 0.00316 µM, first compound 1 µM
[7] = second compound 0.01 µM, first compound 0.00316 µM
[8] = second compound 0.01 µM, first compound 0.01 µM
[9] = second compound 0.01 µM, first compound 0.0316 µM
[10] = second compound 0.01 µM, first compound 0.1 µM
[11] = second compound 0.01 µM, first compound 0.316 µM
[12] = second compound 0.01 µM, first compound 1 µM
[13] = second compound 0.0316 µM, first compound 0.00316 µM
[14] = second compound 0.0316 µM, first compound 0.01 µM
[15] = second compound 0.0316 µM, first compound 0.0316 µM
[16] = second compound 0.0316 µM, first compound 0.1 µM
[17] = second compound 0.0316 µM, first compound 0.316 µM
[18] = second compound 0.0316 µM, first compound 1 µM
[19] = second compound 0.1 µM, first compound 0.00316 µM
[20] = second compound 0.1 µM, first compound 0.01 µM
[21] = second compound 0.1 µM, first compound 0.0316 µM
[22] = second compound 0.1 µM, first compound 0.1 µM
[23] = second compound 0.1 µM, first compound 0.316 µM
[24] = second compound 0.1 µM, first compound 1 µM
[25] = second compound 0.316 µM, first compound 0.00316 µM
[26] = second compound 0.316 µM, first compound 0.01 µM
[27] = second compound 0.316 µM, first compound 0.0316 µM
[28] = second compound 0.316 µM, first compound 0.1 µM
[29] = second compound 0.316 µM, first compound 0.316 µM
[30] = second compound 0.316 µM, first compound 1 µM
[31] = second compound 1 µM, first compound 0.00316 µM
[32] = second compound 1 µM, first compound 0.01 µM
[33] = second compound 1 µM, first compound 0.0316 µM
[34] = second compound 1 µM, first compound 0.1 µM
[35] = second compound 1 µM, first compound 0.316 µM
[36] = second compound 1 µM, first compound 1 µM
[37] = second compound 0.00316 µM, first compound 3.16 µM
[38] = second compound 0.00316 µM, first compound 10 µM
[39] = second compound 0.01 µM, first compound 3.16 µM
[40] = second compound 0.01 µM, first compound 10 µM
[41] = second compound 0.0316 µM, first compound 3.16 µM
[42] = second compound 0.0316 µM, first compound 10 µM
[43] = second compound 0.1 µM, first compound 3.16 µM
[44] = second compound 0.1 µM, first compound 10 µM
[45] = second compound 0.316 µM, first compound 3.16 µM
[46] = second compound 0.316 µM, first compound 10 µM
[47] = second compound 1 µM, first compound 3.16 µM
[48] = second compound 1 µM, first compound 10 µM
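Note: viability read after seven days of compound exposure.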

C=CC(=O)Nc1cc(Nc2nccc(-c3cn(C)c4ccccc34)n2)c(OC)cc1N(C)CCN(C)C + C=CC(=O)N1CCN(c2nc(OCC3CCCN3C)nc3c(F)c(-c4nc(N)cc(C)c4C(F)(F)F)c(Cl)cc23)C(C)C1
pIC50 (second compound 0.00316 µM): 6.49
pIC50 (second compound 0.01 µM): 6.45
pIC50 (second compound 0.0316 µM): 6.27
pIC50 (second compound 0.1 µM): 6.42
pIC50 (second compound 0.316 µM): 6.44
pIC50 (second compound 1 µM): 6.51
viability, T/C [1]: 93.5%
viability, T/C [2]: 90.7%
viability, T/C [3]: 80.1%
viability, T/C [4]: 82.9%
viability, T/C [5]: 49.8%
viability, T/C [6]: 38.9%
viability, T/C [7]: 91.6%
viability, T/C [8]: 84.5%
viability, T/C [9]: 83.5%
viability, T/C [10]: 76.4%
viability, T/C [11]: 50.6%
viability, T/C [12]: 38.1%
viability, T/C [13]: 91.1%
viability, T/C [14]: 88.2%
viability, T/C [15]: 74.4%
viability, T/C [16]: 67%
viability, T/C [17]: 51.5%
viability, T/C [18]: 46.8%
viability, T/C [19]: 87.8%
viability, T/C [20]: 84.5%
viability, T/C [21]: 90.4%
viability, T/C [22]: 75.8%
viability, T/C [23]: 53.4%
viability, T/C [24]: 34.1%
viability, T/C [25]: 87%
viability, T/C [26]: 94%
viability, T/C [27]: 77.2%
viability, T/C [28]: 70.2%
viability, T/C [29]: 52%
viability, T/C [30]: 35.5%
viability, T/C [31]: 90.3%
viability, T/C [32]: 78.7%
viability, T/C [33]: 84.9%
viability, T/C [34]: 71%
viability, T/C [35]: 49.7%
viability, T/C [36]: 32.5%

CC(C)NCC(C(=O)N1CCN(c2ncnc3c2C(C)CC3O)CC1)c1ccc(Cl)cc1 (stereo not given) + C=CC(=O)N1CCN(c2nc(OCC3CCCN3C)nc3c(F)c(-c4nc(N)cc(C)c4C(F)(F)F)c(Cl)cc23)C(C)C1
pIC50 (second compound 0.00316 µM): 6.14
pIC50 (second compound 0.01 µM): 6.15
pIC50 (second compound 0.0316 µM): 6.17
pIC50 (second compound 0.1 µM): 6.17
pIC50 (second compound 0.316 µM): 6.19
pIC50 (second compound 1 µM): 6.06
viability, T/C [3]: 91.6%
viability, T/C [4]: 81.3%
viability, T/C [5]: 70%
viability, T/C [6]: 42.9%
viability, T/C [37]: 18.8%
viability, T/C [38]: 8.64%
viability, T/C [9]: 88.5%
viability, T/C [10]: 85.1%
viability, T/C [11]: 75.1%
viability, T/C [12]: 38.3%
viability, T/C [39]: 19.2%
viability, T/C [40]: 8.6%
viability, T/C [15]: 89%
viability, T/C [16]: 81.2%
viability, T/C [17]: 70.6%
viability, T/C [18]: 38.8%
viability, T/C [41]: 17.3%
viability, T/C [42]: 6.65%
viability, T/C [21]: 91.5%
viability, T/C [22]: 77.9%
viability, T/C [23]: 65.4%
viability, T/C [24]: 44.7%
viability, T/C [43]: 17.2%
viability, T/C [44]: 8.54%
viability, T/C [27]: 91.5%
viability, T/C [28]: 79.7%
viability, T/C [29]: 67.2%
viability, T/C [30]: 40.1%
viability, T/C [45]: 18.2%
viability, T/C [46]: 8.75%
viability, T/C [33]: 89.2%
viability, T/C [34]: 74.2%
viability, T/C [35]: 72.2%
viability, T/C [36]: 47.9%
viability, T/C [47]: 20.7%
viability, T/C [48]: 7.97%

CC(C)n1nc(-c2ccc3oc(N)nc3c2)c2c(N)ncnc21 + C=CC(=O)N1CCN(c2nc(OCC3CCCN3C)nc3c(F)c(-c4nc(N)cc(C)c4C(F)(F)F)c(Cl)cc23)C(C)C1
pIC50 (second compound 0.00316 µM): 7.85
pIC50 (second compound 0.01 µM): 8.04
pIC50 (second compound 0.0316 µM): 7.98
pIC50 (second compound 0.1 µM): 8.07
pIC50 (second compound 0.316 µM): 8.07
pIC50 (second compound 1 µM): 8.01
viability, T/C (second compound 0.00316 µM, first compound 0.000316 µM): 93.5%
viability, T/C (second compound 0.00316 µM, first compound 0.001 µM): 72%
viability, T/C [1]: 81.2%
viability, T/C [2]: 53.2%
viability, T/C [3]: 36.3%
viability, T/C [4]: 21.2%
viability, T/C (second compound 0.01 µM, first compound 0.000316 µM): 86.5%
viability, T/C (second compound 0.01 µM, first compound 0.001 µM): 79.8%
viability, T/C [7]: 63.3%
viability, T/C [8]: 50.2%
viability, T/C [9]: 30.8%
viability, T/C [10]: 18.8%
viability, T/C (second compound 0.0316 µM, first compound 0.000316 µM): 84.4%
viability, T/C (second compound 0.0316 µM, first compound 0.001 µM): 79.2%
viability, T/C [13]: 66.6%
viability, T/C [14]: 48.3%
viability, T/C [15]: 36.5%
viability, T/C [16]: 20.9%
viability, T/C (second compound 0.1 µM, first compound 0.000316 µM): 81.6%
viability, T/C (second compound 0.1 µM, first compound 0.001 µM): 73.6%
viability, T/C [19]: 66.4%
viability, T/C [20]: 45.4%
viability, T/C [21]: 33.1%
viability, T/C [22]: 19.9%
viability, T/C (second compound 0.316 µM, first compound 0.000316 µM): 101%
viability, T/C (second compound 0.316 µM, first compound 0.001 µM): 73.5%
viability, T/C [25]: 67.3%
viability, T/C [26]: 51%
viability, T/C [27]: 28.8%
viability, T/C [28]: 19.2%
viability, T/C (second compound 1 µM, first compound 0.000316 µM): 85.3%
viability, T/C (second compound 1 µM, first compound 0.001 µM): 73.9%
viability, T/C [31]: 62.2%
viability, T/C [32]: 53.5%
viability, T/C [33]: 31.8%
viability, T/C [34]: 18.7%

CC(Nc1ccc2c(c1)OCCn1cc(N3C(=O)OCC3C(F)F)nc1-2)C(N)=O (stereo not given) + C=CC(=O)N1CCN(c2nc(OCC3CCCN3C)nc3c(F)c(-c4nc(N)cc(C)c4C(F)(F)F)c(Cl)cc23)C(C)C1
pIC50 (second compound 0.00316 µM): 6.89
pIC50 (second compound 0.01 µM): 7.03
pIC50 (second compound 0.0316 µM): 7.02
pIC50 (second compound 0.1 µM): 6.88
pIC50 (second compound 0.316 µM): 6.94
pIC50 (second compound 1 µM): 6.93
viability, T/C [3]: 78.7%
viability, T/C [4]: 51.4%
viability, T/C [5]: 38%
viability, T/C [6]: 24.7%
viability, T/C [37]: 17.9%
viability, T/C [38]: 9.53%
viability, T/C [9]: 69%
viability, T/C [10]: 49.3%
viability, T/C [11]: 32.3%
viability, T/C [12]: 25.1%
viability, T/C [39]: 19.7%
viability, T/C [40]: 10.9%
viability, T/C [15]: 69.3%
viability, T/C [16]: 49.5%
viability, T/C [17]: 33.6%
viability, T/C [18]: 23.1%
viability, T/C [41]: 20.4%
viability, T/C [42]: 9.06%
viability, T/C [21]: 67.8%
viability, T/C [22]: 57.8%
viability, T/C [23]: 30%
viability, T/C [24]: 23.1%
viability, T/C [43]: 15.4%
viability, T/C [44]: 10.2%
viability, T/C [27]: 65.7%
viability, T/C [28]: 54.2%
viability, T/C [29]: 33.5%
viability, T/C [30]: 24.3%
viability, T/C [45]: 17.4%
viability, T/C [46]: 8.73%
viability, T/C [33]: 74.3%
viability, T/C [34]: 45.4%
viability, T/C [35]: 40.6%
viability, T/C [36]: 26.5%
viability, T/C [47]: 17.9%
viability, T/C [48]: 8.86%

O=C(c1ccc(F)c(F)c1Nc1ccc(I)cc1F)N1CC(O)([C@@H]2CCCCN2)C1 + C=CC(=O)N1CCN(c2nc(OCC3CCCN3C)nc3c(F)c(-c4nc(N)cc(C)c4C(F)(F)F)c(Cl)cc23)C(C)C1
pIC50 (second compound 0.00316 µM): 6.76
pIC50 (second compound 0.01 µM): 6.79
pIC50 (second compound 0.0316 µM): 6.88
pIC50 (second compound 0.1 µM): 6.92
pIC50 (second compound 0.316 µM): 6.85
pIC50 (second compound 1 µM): 6.86
viability, T/C [1]: 85.4%
viability, T/C [2]: 92%
viability, T/C [3]: 77.5%
viability, T/C [4]: 61%
viability, T/C [5]: 38.4%
viability, T/C [6]: 24.3%
viability, T/C [7]: 87.5%
viability, T/C [8]: 85.4%
viability, T/C [9]: 73.2%
viability, T/C [10]: 59.5%
viability, T/C [11]: 37.9%
viability, T/C [12]: 23.5%
viability, T/C [13]: 83.4%
viability, T/C [14]: 80.2%
viability, T/C [15]: 71%
viability, T/C [16]: 53.6%
viability, T/C [17]: 36.8%
viability, T/C [18]: 20.9%
viability, T/C [19]: 89.6%
viability, T/C [20]: 79.6%
viability, T/C [21]: 68.6%
viability, T/C [22]: 52.7%
viability, T/C [23]: 35.9%
viability, T/C [24]: 19.7%
viability, T/C [25]: 84.5%
viability, T/C [26]: 79.9%
viability, T/C [27]: 68.3%
viability, T/C [28]: 51.6%
viability, T/C [29]: 42%
viability, T/C [30]: 25.9%
viability, T/C [31]: 88.8%
viability, T/C [32]: 75.5%
viability, T/C [33]: 70.8%
viability, T/C [34]: 53.8%
viability, T/C [35]: 38.5%
viability, T/C [36]: 25.5%
